According to patent publication US8937183B2, “Detection of hydrogen peroxide” (Promega Corporation, priority 2011, dated 2015):

Assay: Light generation from compounds following incubation with hydrogen peroxide in different pH solutions (D-cysteine conversion, LDR)
Format: biochemical
Conditions: for Signal to Background Ratios: signal with peroxide to background no peroxide
Experimental: In this experiment, various compounds were tested for their ability to detect hydrogen peroxide in different pH solutions. Several compounds are shown to give much better signal strength and signal to background ratios than PBI 3048 (Example 23). 4 mg/ml solutions of compounds PBI 4480, 4481, 4452, 4470, 4472, 3048 (FIGS. 1 and 2) were made by dissolving them in DMSO (Fluka 41641). 30 μl of the compound solutions was diluted to 1.5 ml with Nanopure water, and 50 μl aliquots added as follows into a white, 96-well luminometer plate: PBI 4481, row A1-12; PBI 4480, row B1-12; PBI 4452, row C1-12; PBI 3048, row D1-12; PBI 4472, row E1-12 and PBI 4470, row F1-12.
25 μl of 200 mM TRIS buffer, pH 7.6 was added to wells A1-F4, 25 μl of 200 mM TRIS buffer, pH 8.8 was added to wells A5-F8, and 25 μl of 200 mM Tris buffer, pH 10.4 was added […].
30% hydrogen peroxide (Sigma H 1009-5 ml) was diluted to 40 μM in Nanopure water, and 25 μl added to columns 3, 4, 7, 8, 11 and 12 of the plate. 25 μl water was added to columns 1, 2, 5, 6, 9, and 10 of the plate, and the plate incubated at room temperature for 60 minutes.
A conversion solution was made by mixing 100 μl of 100 mM D-cysteine, 1 ml Tris Buffer pH 8.8 and 8.9 ml nanopure water. After mixing, 80 μl of the solution was added to wells A1-F12 of a new luminometer plate.
After incubation, 20 μl of sample from wells A1-F12 of the first plate was transferred to the same well in the new luminometer plate. The new plate was incubated at room temperature for 5 minutes, 100 μl of LDR (Example 23) was added to wells A1-F12, and bioluminescence detected on a Glo Max® luminometer (Promega).
The RLUs for the duplicate wells were averaged. The averages for the wells containing hydrogen peroxide were compared to the wells without hydrogen peroxide at the same pH (Table 2). BZT is used to designate benzothiazole derivatives of the compounds.
The Signal to Background (S/B) ratio is used to compare assay reagents with very difference signal strengths. An assay with a higher S/B ratio is often considered a better assay than one with a smaller S/B ratio (with all other factors being relatively equal).

[1] = pH 7.6 TRIS buffer, No H2O2, 60 minutes
[2] = pH 7.6 TRIS buffer, With H2O2 (25 μl of 40 μM added), 60 minutes
[3] = pH 8.8 TRIS buffer, No H2O2, 60 minutes
[4] = pH 8.8 TRIS buffer, With H2O2 (25 μl of 40 μM added), 60 minutes
[5] = pH 10.4 Tris buffer, No H2O2, 60 minutes
[6] = pH 10.4 Tris buffer, With H2O2 (25 μl of 40 μM added), 60 minutes

SMILES: CC1(C)OB(c2ccc(COc3ccc4nc(C#N)sc4c3)cc2F)OC1(C)C [PBI 4481, 6-((3-fluoro-4-(4,4,5,5-tetramethyl-1,3,2-dioxaborolan-2-yl)benzyl)oxy)benzo[d]thiazole-2-carbonitrile]
- Signal to Background Ratios (pH 7.6): 7.0
- averaged RLUs (bioluminescence) [1]: 124,246 RLU
- averaged RLUs (bioluminescence) [2]: 873,626 RLU
- Signal to Background Ratios (pH 8.8): 21.1
- averaged RLUs (bioluminescence) [3]: 135,530 RLU
- averaged RLUs (bioluminescence) [4]: 2,854,279 RLU
- Signal to Background Ratios (pH 10.4): 32.4
- averaged RLUs (bioluminescence) [5]: 230,459 RLU
- averaged RLUs (bioluminescence) [6]: 7,474,603 RLU

SMILES: O=C(O)C1CSC(c2nc3ccc(OCc4ccc(B(O)O)cc4)cc3s2)=N1 (stereo not drawn) [PBI 3048]
- Signal to Background Ratios (pH 7.6): 3.0
- averaged RLUs (bioluminescence) [1]: 569,141 RLU
- averaged RLUs (bioluminescence) [2]: 1,726,143 RLU
- Signal to Background Ratios (pH 8.8): 4.5
- averaged RLUs (bioluminescence) [3]: 558,869 RLU
- averaged RLUs (bioluminescence) [4]: 2,499,869 RLU
- Signal to Background Ratios (pH 10.4): 6.7
- averaged RLUs (bioluminescence) [5]: 558,333 RLU
- averaged RLUs (bioluminescence) [6]: 3,768,437 RLU

SMILES: CC1(C)OB(c2ccc(COc3ccc4nc(C#N)sc4c3)cc2)OC1(C)C [PBI 4472, 6-((4-(4,4,5,5-tetramethyl-1,3,2-dioxaborolan-2-yl)benzyl)oxy)benzo-[d]thiazole-2-carbonitrile]
- Signal to Background Ratios (pH 7.6): 18.0
- averaged RLUs (bioluminescence) [1]: 102,925 RLU
- averaged RLUs (bioluminescence) [2]: 1,854,434 RLU
- Signal to Background Ratios (pH 8.8): 31.6
- averaged RLUs (bioluminescence) [3]: 163,710 RLU
- averaged RLUs (bioluminescence) [4]: 5,175,361 RLU
- Signal to Background Ratios (pH 10.4): 24.1
- averaged RLUs (bioluminescence) [5]: 337,921 RLU
- averaged RLUs (bioluminescence) [6]: 8,159,216 RLU

SMILES: CC1(C)OB(c2ccc(COc3ccc4nc(C#N)sc4c3)c3ccccc23)OC1(C)C [PBI 4480, 6-((4-(4,4,5,5-tetramethyl-1,3,2-dioxaborolan-2-yl)naphthalen-1-yl)methoxy)benzo[d]thiazole-2-carbonitrile]
- Signal to Background Ratios (pH 7.6): 4.5
- averaged RLUs (bioluminescence) [1]: 146,664 RLU
- averaged RLUs (bioluminescence) [2]: 657,132 RLU
- Signal to Background Ratios (pH 8.8): 8.7
- averaged RLUs (bioluminescence) [3]: 179,821 RLU
- averaged RLUs (bioluminescence) [4]: 1,563,422 RLU
- Signal to Background Ratios (pH 10.4): 20.0
- averaged RLUs (bioluminescence) [5]: 265,315 RLU
- averaged RLUs (bioluminescence) [6]: 5,295,463 RLU
